Values joined by “and” are separate entries in the source; they are usually repeats but may differ in a detail not shown here. Equal entries are not always repeated. Active and inactive are the calls of the source. No rule for the calls is given here.
Molecular target: Serine/threonine-protein kinase PLK1 (Homo sapiens) (UniProt P53350)
Assay: PLK1 polo-box domain peptide-binding inhibitors, SAR follow-up, biochemical, fluorescence polarization, purchased analogs, concentration response (AID 1083)
Settings: Plk1 PBD peptide binding

Chain of Serine/threonine-protein kinase PLK1 (Homo sapiens) (P53350 whole entry, looked up, the tested form may be a part): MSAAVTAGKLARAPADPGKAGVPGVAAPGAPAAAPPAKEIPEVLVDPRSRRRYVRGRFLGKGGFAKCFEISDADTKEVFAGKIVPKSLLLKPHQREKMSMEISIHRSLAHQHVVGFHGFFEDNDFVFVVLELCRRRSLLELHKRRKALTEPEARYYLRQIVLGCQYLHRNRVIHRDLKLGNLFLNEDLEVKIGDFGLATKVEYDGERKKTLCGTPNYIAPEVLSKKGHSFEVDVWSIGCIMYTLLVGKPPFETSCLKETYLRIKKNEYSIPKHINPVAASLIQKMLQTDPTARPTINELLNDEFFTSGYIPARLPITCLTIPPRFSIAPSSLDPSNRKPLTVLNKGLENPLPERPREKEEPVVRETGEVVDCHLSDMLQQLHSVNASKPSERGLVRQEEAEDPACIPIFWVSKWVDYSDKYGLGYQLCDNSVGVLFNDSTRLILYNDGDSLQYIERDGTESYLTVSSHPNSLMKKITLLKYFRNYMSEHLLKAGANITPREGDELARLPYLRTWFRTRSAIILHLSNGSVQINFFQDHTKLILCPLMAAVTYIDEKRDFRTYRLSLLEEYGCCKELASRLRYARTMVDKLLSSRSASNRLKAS

| SMILES | IC50 |
| --- | --- |
| CCn1nc(-c2ccc(C(F)(F)F)cc2)nc2c(=O)n(C)c(=O)nc1-2 | 0.552 µM |
| CC(=O)Oc1ccccc1N(/C=C1/Sc2ccccc2C1=O)C(C)=O | > 50 µM (inactive) |
| CCCCCC(=O)N(CN1C(=O)c2ccccc2C1=O)c1cccc(C(=O)O)c1 | > 50 µM (inactive) |
| CCOC(=O)c1ccc(NC(=O)c2cc(=O)[nH]c3ccccc23)cc1 | > 50 µM (inactive) |
| CCCOC(=O)c1ccc(NC(=O)c2ccc(C)c(I)c2)cc1 | > 50 µM (inactive) |
| CC(=O)N(CN1C(=O)c2ccccc2C1=O)c1cccc(F)c1 | > 50 µM (inactive) |
| CC(=O)N(CN1C(=O)c2ccccc2C1=O)c1cc(Br)ccc1C | > 50 µM (inactive) |
| CCOC(=O)c1ccc(NC(=O)c2c(C)cc(=O)oc2C)cc1 | > 50 µM (inactive) |
| CCCOC(=O)c1ccc(NC(=O)c2cc(-c3cccs3)nc3c(C)c(Cl)ccc23)cc1 | > 50 µM (inactive) |
| O=C(COC(=O)c1ccc(NC(=O)c2ccc([N+](=O)[O-])cc2)cc1)c1ccccc1 | > 50 µM (inactive) |
| CC(=O)N(CN1C(=O)c2ccc(Br)cc2C1=O)c1ccc(Cl)cc1 | > 50 µM (inactive) |
| CCOC(=O)c1ccc(NC(=O)C2CC(=O)N=C(N)S2)cc1 (centres undefined) | > 50 µM (inactive) |
| COc1ccc(-c2nnc3[nH]c(=O)n(C)c(=O)c3n2)cc1 | > 50 µM (inactive) |
| CCc1ccc(-c2nc3c(=O)n(C)c(=O)nc-3n(CC)n2)cc1 | 0.786 µM and > 50 µM (inactive) |
| CC(=O)N(/C=C1\Sc2ccccc2C1=O)c1ccc(C)cc1 | > 50 µM (inactive) |
| CCOC(=O)c1ccc(N=Cc2c(O)n(Cc3ccc4c(c3)OCO4)c(=O)[nH]c2=O)cc1 | > 50 µM (inactive) |
| Cn1c(=O)[nH]c2nnc(-c3ccc4c(c3)OCO4)nc2c1=O | > 50 µM (inactive) and 4.91 µM |
| CCOC(=O)c1ccc(NC(=O)C2Oc3ccccc3OC2C)cc1 (centres undefined) | > 50 µM (inactive) |
| CCCCCCC(=O)N(CN1C(=O)c2ccccc2C1=O)c1ccc(OCc2ccccc2)cc1 | > 50 µM (inactive) |
| CCOC(=O)c1ccc(NC(=O)C2CCCCC2C(=O)O)cc1 (centres undefined) | > 50 µM (inactive) |
| COC(=O)c1ccc(N(/N=C2\Sc3ccccc3C2=O)C(C)=O)cc1 | 13.9 µM |
| CC(=O)N(/N=C1\Sc2ccccc2C1=O)c1ccccc1 | 20.5 µM |

| SMILES | IC50 |
| --- | --- |
| CCn1nc(-c2ccc([N+](=O)[O-])cc2)nc2c(=O)n(C)c(=O)nc1-2 | 0.571 µM |
| COc1ccccc1N(CN1C(=O)c2ccc([N+](=O)[O-])cc2C1=O)C(C)=O | > 50 µM (inactive) |
| O=C1NC(=O)C(=Cc2ccccc2OCCOc2ccccc2)C(=O)N1 | > 50 µM (inactive) |
| CCCCCCC(=O)N(CN1C(=O)c2ccccc2C1=O)c1ccccc1 | > 50 µM (inactive) |
| CCOC(=O)c1ccc(NC(=O)c2cc3ccccc3c(=O)o2)cc1 | > 50 µM (inactive) |
| Cc1ccc(-c2nc3c(=O)n(C)c(=O)nc-3n(C)n2)cc1 | 1.35 µM |
| CC(=O)N(CN1C(=O)c2cccc([N+](=O)[O-])c2C1=O)c1ccc2c(c1)oc1ccccc12 | > 50 µM (inactive) |
| CC(=O)N(CN1C(=O)c2ccccc2C1=O)c1ccc(C)cc1 | > 50 µM (inactive) |
| CCOC(=O)c1ccc(N=Cc2c(O)n(-c3ccc(OCC)cc3)c(=O)[nH]c2=O)cc1 | > 50 µM (inactive) |
| Cn1nc(-c2ccc([N+](=O)[O-])cc2)nc2c(=O)n(C)c(=O)nc1-2 | 0.375 µM |
| COc1cc(C=C2C(=O)NC(=O)NC2=O)ccc1OCc1ccc(Cl)cc1Cl | > 50 µM (inactive) |
| CC(=O)N(/C=C1\Sc2ccccc2C1=O)c1cccc(C)c1 | > 50 µM (inactive) |
| CCN(CC)CCOC(=O)c1ccc(N=Cc2c(O)n(Cc3ccccc3)c(=O)[nH]c2=O)cc1 | > 50 µM (inactive) |
| CCOC(=O)c1ccc(NC(=O)C2OCCc3ccccc32)cc1 (centres undefined) | > 50 µM (inactive) |
| CCOC(=O)c1ccc(N=Cc2c(O)n(Cc3ccccc3)c(=O)[nH]c2=O)cc1 | > 50 µM (inactive) |
| COc1ccccc1N(CN1C(=O)c2ccccc2C1=O)C(C)=O | > 50 µM (inactive) |
| Cc1ccc(-c2nnc3[nH]c(=O)n(C)c(=O)c3n2)cc1 | > 50 µM (inactive) |
| CC(=O)N(CN1C(=O)c2ccccc2C1=O)c1ccc(F)cc1 | > 50 µM (inactive) |
| COc1ccccc1N(/N=C1\Sc2ccccc2C1=O)C(C)=O | 13.3 µM |
| CCn1nc(-c2ccc(C(=O)OC)cc2)nc2c(=O)n(C)c(=O)nc1-2 | 0.488 µM |
| O=C1NC(=O)C(=Cc2cc(Cl)c(OCc3ccc(C(=O)O)cc3)c(Cl)c2)C(=O)N1 | > 50 µM (inactive) |
| CC(=O)Oc1ccccc1N(/C=C1\Sc2ccccc2C1=O)C(C)=O | > 50 µM (inactive) |
